Tests used:
[1] = target: T1, Dual specificity mitogen-activated protein kinase kinase 3 (Homo sapiens) (UniProt P46734); test: Inhibition of MEK3 (unknown origin) assessed as residual activity at 1000 nM by KINOMEscan analysis relative to control
T1 sequence (whole entry): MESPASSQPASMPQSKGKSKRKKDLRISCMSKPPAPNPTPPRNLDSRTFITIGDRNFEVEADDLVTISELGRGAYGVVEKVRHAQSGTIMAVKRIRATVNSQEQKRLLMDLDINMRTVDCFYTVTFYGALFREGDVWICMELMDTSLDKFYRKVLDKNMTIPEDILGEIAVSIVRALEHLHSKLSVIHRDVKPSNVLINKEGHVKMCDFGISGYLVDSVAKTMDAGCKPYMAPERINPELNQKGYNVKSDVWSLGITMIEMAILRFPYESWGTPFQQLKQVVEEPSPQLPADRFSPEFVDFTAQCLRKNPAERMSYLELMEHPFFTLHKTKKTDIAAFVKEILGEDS

[2] = target: Death-associated protein kinase 3 (Homo sapiens) (UniProt O43293); test: Inhibition of DAPK3 (unknown origin) assessed as residual activity at 1000 nM by KINOMEscan analysis relative to control
[3] = target: Serine/threonine-protein kinase MARK2 (Homo sapiens) (UniProt Q7KZI7); test: Inhibition of MARK2 (unknown origin) assessed as residual activity at 1000 nM by KINOMEscan analysis relative to control
[4] = target: Death-associated protein kinase 1 (Homo sapiens) (UniProt P53355); test: Inhibition of DAPK1 (unknown origin) assessed as residual activity at 1000 nM by KINOMEscan analysis relative to control
[5] = target: LIM domain kinase 2 (Homo sapiens) (UniProt P53671); test: Inhibition of LIMK2 (unknown origin) assessed as residual activity at 1000 nM by KINOMEscan analysis relative to control
[6] = target: T2, Ephrin type-A receptor 3 (Homo sapiens) (UniProt P29320); test: Inhibition of EPHA3 (unknown origin) assessed as residual activity at 1000 nM by KINOMEscan analysis relative to control
T2 sequence (whole entry): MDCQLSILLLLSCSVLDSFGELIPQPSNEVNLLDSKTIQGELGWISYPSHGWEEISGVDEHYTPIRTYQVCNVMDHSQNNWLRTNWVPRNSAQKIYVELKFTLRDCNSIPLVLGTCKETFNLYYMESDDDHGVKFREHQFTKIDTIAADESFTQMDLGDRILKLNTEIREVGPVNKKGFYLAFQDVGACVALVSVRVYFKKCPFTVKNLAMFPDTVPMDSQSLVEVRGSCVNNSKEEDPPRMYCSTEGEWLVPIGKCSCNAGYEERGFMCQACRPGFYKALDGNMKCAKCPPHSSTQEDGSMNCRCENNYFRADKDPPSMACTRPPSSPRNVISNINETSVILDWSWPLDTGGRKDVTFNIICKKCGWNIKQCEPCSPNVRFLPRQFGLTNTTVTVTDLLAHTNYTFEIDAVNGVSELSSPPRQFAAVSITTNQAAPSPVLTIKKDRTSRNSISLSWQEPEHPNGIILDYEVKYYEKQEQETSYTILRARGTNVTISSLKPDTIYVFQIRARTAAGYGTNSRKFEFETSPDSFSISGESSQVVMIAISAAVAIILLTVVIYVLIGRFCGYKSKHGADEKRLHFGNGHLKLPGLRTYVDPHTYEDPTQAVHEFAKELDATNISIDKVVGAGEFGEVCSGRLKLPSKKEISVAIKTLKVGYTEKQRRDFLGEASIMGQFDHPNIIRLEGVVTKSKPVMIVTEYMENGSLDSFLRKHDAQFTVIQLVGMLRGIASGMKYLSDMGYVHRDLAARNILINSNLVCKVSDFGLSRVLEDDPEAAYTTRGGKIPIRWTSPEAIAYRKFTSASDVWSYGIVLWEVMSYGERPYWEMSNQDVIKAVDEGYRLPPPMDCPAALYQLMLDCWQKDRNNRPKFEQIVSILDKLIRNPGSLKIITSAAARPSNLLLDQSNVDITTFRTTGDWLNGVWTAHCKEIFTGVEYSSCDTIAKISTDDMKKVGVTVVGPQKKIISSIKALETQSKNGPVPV

[7] = target: Serine/threonine-protein kinase 33 (Homo sapiens) (UniProt Q9BYT3); test: Inhibition of STK33 (unknown origin) assessed as residual activity at 1000 nM by KINOMEscan analysis relative to control
[8] = target: T3, Discoidin domain-containing receptor 2 (Homo sapiens) (UniProt Q16832); test: Inhibition of DDR2 (unknown origin) assessed as residual activity at 1000 nM by KINOMEscan analysis relative to control
T3 sequence (whole entry): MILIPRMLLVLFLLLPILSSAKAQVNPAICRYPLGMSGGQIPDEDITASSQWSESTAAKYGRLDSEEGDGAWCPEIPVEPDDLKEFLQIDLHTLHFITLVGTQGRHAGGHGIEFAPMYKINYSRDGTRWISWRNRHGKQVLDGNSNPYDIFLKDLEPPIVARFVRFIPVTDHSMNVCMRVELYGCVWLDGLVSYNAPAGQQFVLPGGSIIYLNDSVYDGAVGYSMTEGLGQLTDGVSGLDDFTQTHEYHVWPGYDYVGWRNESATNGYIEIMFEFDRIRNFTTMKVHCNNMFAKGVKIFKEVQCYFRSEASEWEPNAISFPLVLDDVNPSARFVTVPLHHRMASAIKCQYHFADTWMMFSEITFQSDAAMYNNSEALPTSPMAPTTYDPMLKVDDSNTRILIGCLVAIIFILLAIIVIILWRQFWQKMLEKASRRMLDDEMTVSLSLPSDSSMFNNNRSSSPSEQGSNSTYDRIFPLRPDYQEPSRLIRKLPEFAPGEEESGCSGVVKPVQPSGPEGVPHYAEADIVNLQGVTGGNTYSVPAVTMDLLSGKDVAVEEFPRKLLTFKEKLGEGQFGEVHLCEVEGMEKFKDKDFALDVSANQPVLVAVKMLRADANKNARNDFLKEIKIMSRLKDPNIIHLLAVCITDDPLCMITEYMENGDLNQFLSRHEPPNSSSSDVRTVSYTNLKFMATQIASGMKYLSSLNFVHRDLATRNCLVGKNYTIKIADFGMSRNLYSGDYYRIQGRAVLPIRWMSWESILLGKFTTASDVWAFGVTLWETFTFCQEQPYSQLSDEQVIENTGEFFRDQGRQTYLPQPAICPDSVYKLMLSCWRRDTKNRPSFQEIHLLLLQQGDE

Death-associated protein kinase 1 (Homo sapiens), sequence (P53355 whole entry, looked up, the tested form may be a part): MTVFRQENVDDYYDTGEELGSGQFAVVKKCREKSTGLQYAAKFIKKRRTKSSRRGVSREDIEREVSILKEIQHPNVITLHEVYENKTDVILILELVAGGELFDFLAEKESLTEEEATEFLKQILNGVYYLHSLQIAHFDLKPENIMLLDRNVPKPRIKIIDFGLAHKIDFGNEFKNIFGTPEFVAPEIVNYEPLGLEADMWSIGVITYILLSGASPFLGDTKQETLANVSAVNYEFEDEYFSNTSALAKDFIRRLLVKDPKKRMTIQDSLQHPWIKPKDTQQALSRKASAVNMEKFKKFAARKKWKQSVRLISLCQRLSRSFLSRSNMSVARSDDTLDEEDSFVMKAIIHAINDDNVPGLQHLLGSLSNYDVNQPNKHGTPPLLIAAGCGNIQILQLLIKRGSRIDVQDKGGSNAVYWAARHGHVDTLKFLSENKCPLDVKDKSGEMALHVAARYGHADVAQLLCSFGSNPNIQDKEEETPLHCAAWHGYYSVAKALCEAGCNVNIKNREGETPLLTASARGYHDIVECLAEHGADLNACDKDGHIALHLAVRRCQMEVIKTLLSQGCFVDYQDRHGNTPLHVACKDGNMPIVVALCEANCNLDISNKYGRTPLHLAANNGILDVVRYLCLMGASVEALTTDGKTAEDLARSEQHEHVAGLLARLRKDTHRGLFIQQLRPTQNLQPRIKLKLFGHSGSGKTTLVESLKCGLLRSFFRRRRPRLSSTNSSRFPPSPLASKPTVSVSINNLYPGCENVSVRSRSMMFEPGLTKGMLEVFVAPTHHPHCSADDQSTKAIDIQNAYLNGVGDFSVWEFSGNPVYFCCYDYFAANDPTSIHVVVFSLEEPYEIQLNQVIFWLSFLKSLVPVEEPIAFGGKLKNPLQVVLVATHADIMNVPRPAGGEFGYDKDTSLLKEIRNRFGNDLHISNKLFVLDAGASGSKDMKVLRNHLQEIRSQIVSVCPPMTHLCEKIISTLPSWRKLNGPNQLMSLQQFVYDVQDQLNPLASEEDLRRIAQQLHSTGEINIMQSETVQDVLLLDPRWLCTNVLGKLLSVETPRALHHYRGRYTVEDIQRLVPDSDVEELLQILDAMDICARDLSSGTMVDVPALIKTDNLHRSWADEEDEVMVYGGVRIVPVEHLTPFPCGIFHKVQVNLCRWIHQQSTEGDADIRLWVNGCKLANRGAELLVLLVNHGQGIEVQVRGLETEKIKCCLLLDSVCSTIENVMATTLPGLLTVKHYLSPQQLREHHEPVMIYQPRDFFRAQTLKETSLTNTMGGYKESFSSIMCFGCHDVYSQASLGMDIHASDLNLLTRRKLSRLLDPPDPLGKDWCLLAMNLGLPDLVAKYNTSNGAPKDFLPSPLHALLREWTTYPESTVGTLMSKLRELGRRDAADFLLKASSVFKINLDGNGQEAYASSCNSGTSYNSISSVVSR
LIM domain kinase 2 (Homo sapiens), sequence (P53671 whole entry, looked up, the tested form may be a part): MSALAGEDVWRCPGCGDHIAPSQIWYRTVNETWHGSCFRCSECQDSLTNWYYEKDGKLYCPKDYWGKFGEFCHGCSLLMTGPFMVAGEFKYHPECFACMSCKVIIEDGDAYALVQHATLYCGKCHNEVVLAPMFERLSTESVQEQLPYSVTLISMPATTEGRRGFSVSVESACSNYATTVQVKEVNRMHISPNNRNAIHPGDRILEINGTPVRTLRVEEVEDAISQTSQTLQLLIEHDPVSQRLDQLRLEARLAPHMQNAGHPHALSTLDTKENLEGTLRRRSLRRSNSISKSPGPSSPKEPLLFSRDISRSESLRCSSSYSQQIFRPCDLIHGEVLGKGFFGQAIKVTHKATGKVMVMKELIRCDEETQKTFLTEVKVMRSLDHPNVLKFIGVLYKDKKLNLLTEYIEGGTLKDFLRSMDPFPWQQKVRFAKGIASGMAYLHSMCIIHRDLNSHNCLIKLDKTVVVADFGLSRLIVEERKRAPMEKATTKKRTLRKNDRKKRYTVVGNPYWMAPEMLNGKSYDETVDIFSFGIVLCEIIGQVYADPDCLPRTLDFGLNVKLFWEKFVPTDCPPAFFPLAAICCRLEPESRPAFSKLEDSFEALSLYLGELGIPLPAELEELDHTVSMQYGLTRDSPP
Serine/threonine-protein kinase MARK2 (Homo sapiens), sequence (Q7KZI7 whole entry): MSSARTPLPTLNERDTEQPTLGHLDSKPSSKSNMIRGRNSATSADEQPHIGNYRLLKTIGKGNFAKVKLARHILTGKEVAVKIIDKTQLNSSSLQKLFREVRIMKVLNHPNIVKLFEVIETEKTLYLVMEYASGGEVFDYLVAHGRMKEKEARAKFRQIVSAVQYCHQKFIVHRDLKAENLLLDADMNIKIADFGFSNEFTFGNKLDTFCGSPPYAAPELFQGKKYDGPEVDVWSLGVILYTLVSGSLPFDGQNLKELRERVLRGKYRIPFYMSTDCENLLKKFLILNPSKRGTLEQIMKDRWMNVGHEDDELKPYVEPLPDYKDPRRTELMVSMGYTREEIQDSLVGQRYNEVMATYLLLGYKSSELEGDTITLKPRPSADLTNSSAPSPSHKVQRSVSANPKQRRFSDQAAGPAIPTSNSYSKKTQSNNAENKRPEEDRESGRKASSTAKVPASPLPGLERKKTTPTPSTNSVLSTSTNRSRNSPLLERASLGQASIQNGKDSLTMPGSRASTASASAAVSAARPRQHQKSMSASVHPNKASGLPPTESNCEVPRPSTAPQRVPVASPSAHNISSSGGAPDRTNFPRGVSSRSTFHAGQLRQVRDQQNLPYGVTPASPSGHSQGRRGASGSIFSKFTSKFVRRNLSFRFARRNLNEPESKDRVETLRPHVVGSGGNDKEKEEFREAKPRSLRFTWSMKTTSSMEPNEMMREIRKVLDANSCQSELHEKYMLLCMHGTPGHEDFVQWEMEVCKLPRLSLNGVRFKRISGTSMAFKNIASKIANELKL
Death-associated protein kinase 3 (Homo sapiens), sequence (O43293 whole entry, looked up): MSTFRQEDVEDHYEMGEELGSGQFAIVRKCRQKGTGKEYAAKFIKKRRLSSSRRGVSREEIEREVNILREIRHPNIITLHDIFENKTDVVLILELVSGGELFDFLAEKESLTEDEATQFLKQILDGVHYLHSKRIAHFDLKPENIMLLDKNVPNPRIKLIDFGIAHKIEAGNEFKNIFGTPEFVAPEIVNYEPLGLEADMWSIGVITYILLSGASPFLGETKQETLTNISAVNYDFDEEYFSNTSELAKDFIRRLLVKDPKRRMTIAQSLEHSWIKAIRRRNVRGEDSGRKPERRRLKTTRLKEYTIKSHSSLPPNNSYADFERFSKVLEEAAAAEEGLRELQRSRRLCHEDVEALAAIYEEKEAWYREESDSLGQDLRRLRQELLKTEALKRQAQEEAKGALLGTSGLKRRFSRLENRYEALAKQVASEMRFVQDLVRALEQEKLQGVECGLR
Serine/threonine-protein kinase 33 (Homo sapiens), sequence (Q9BYT3 whole entry, looked up, the tested form may be a part): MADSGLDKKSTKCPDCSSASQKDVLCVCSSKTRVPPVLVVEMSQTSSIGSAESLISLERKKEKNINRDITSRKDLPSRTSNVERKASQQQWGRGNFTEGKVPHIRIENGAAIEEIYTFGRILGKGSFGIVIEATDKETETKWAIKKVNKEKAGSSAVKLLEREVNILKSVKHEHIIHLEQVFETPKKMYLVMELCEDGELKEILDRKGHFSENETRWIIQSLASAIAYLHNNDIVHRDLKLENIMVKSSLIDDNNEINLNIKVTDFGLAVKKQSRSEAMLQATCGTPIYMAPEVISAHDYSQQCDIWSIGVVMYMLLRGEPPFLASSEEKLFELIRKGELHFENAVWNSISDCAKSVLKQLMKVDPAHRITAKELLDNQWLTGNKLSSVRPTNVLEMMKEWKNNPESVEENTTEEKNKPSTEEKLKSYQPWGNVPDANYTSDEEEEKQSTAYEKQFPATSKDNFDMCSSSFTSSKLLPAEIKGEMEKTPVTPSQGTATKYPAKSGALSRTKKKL

SMILES	Activity [1]	Activity [2]	Activity [3]	Activity [4]	Activity [5]	Activity [6]	Activity [7]	Activity [8]
COc1cc2ncnc(N[C@H](C)c3cccc4ccccc34)c2cc1OC	100%	100%	75%	100%	92%	48%	68%	67%
COc1cc2nc(C)nc(N[C@H](C)c3cccc(-c4cn[nH]c4)c3)c2cc1OC	54%	76%	100%	82%	100%	90%	100%	97%
